Consider 2 molecules from US20240398737A1, “FUNCTIONALIZED LONG-CHAIN HYDROCARBON MONO- AND DI-CARBOXYLIC ACIDS AND DERIVATIVES THEREOF, AND THEIR USE FOR THE PREVENTION OR TREATMENT OF DISEASE” (Espervita Therapeutics, Inc., priority 2021, published 2024).

Bounds are passed on as bounds.

Data set [1] has as its target DDR2 (Homo sapiens (Human), UniProt Q16832). In words: Wild type kinase screen: DDR2. The data set is classed as biochemical. Conditions: compound at 10 μM, 10 μM ATP, Data 1 and Data 2 duplicates.
Data set [2] addresses RIPK4 (Homo sapiens (Human), UniProt P57078). In words: Wild type kinase screen: RIPK4. The data set is classed as biochemical. The conditions noted are these: compound at 10 μM, 10 μM ATP, Data 1 and Data 2 duplicates.
The target in data set [3] is MAPKAPK2 (Homo sapiens (Human), UniProt P49137). In words: Wild type kinase screen: MAPKAPK2. The data set is classed as biochemical. The conditions noted are these: compound at 10 μM, 10 μM ATP, Data 1 and Data 2 duplicates.
MAPKAPK2, sequence (P49137 whole entry, species assumed): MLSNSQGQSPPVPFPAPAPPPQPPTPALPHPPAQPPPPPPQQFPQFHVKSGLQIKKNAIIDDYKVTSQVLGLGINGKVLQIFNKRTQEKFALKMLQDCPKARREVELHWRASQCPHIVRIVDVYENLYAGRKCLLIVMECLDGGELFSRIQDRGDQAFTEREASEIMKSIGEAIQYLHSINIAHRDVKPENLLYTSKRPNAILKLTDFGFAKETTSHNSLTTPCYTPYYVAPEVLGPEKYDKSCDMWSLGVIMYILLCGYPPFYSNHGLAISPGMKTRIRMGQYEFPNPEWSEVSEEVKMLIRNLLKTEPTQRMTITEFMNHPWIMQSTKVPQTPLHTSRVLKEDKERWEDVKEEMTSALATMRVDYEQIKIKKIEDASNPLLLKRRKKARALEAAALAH
For data set [4], the target named is AURORA C (Homo sapiens (Human), UniProt Q9UQB9). The data set can be described thus: Wild type kinase screen: AURORA C. In kind it is biochemical. Conditions: compound at 10 μM, 10 μM ATP, Data 1 and Data 2 duplicates.
AURORA C, sequence (Q9UQB9 whole entry): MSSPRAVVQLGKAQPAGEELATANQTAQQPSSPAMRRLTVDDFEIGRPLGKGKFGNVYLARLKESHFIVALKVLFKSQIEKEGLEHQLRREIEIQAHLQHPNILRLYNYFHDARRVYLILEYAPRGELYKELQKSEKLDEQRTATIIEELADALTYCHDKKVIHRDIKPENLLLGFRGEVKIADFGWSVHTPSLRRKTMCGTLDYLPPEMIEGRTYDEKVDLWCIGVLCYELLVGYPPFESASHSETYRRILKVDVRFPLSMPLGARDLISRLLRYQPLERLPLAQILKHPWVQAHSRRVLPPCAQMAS
For data set [5], the target named is Aurora A (Homo sapiens (Human), UniProt O14965). The data set can be described thus: Wild type kinase screen: Aurora A. The data set is classed as biochemical. Conditions: compound at 10 μM, 10 μM ATP, Data 1 and Data 2 duplicates.
Aurora A, sequence (O14965 whole entry): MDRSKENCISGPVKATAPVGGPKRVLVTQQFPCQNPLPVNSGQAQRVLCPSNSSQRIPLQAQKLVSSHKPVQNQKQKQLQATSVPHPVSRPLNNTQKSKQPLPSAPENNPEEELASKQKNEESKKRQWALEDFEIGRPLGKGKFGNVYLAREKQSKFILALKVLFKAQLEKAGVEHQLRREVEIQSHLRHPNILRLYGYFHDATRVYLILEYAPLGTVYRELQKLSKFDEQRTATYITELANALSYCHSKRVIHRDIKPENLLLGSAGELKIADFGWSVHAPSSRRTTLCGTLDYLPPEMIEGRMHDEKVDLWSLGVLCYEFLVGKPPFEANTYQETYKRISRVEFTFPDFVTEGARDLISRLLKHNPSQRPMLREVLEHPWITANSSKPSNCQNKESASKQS
Data set [6] concerns the target ERK7/MAPK15 (Homo sapiens (Human), UniProt Q8TD08). In words: Wild type kinase screen: ERK7/MAPK15. Conditions: compound at 10 μM, 10 μM ATP, Data 1 and Data 2 duplicates. The data set is classed as biochemical.
The target in data set [7] is CAMK2g (Homo sapiens (Human), UniProt Q13555). The data set can be described thus: Wild type kinase screen: CAMK2g. In kind it is biochemical. The conditions noted are these: compound at 10 μM, 10 μM ATP, Data 1 and Data 2 duplicates.
The subject of data set [8] is Mouse primary hepatocytes. In words: 14C-acetate incorporation into total lipids in mouse primary hepatocytes. The data set is classed as cell-based. The conditions noted are these: incorporation of 14C-acetate in primary mouse hepatocyte total lipids, 4 hours, 100 μM. The procedure: After perfusion, collagen digested liver cells were re-suspended in William's E media (11 mM glucose) (Gibco) supplemented with 10% fetal bovine serum (FBS) (Gibco), 2 mM L-glutamine (Gibco) and 1% Antibiotic-Antimycotic (Gibco) mixture and seeded in white opaque 96-well plates. On the following day, the cells were serum-starved for 2 hours, then treated with 0 μM, 0.1 μM, 0.3 μM, 0.5 μM, 1 μM, 3 μM, 10 μM, and 100 μM of Compound I-32, Compound I-1, Compound III-1 or Reference Compound (e.g., any of Compounds A-E or bempedoic acid) in the presence of ^14C-Acetate (1 μCi/ml, PerkinElmer). Each of Compound I-32, Compound I-1, Compound III-1, and Reference Compound was solubilized in 100% DMSO to a final concentration of 100 mM stock solution. In the experimental condition, the stock solution was diluted in serum free media (William's E media (11 mM glucose) (Gibco), 2 mM L-glutamine (Gibco) and 1% Antibiotic-Antimycotic) to yield the desired concentration of each compound. […] After 4 hours of treatment, the plates were washed two times with PBS (×1) and 100 μL microscint fluid (Microscint 0, part #601361) was added in each well. Plates were wrapped with aluminum foil and were shaken at 250 rpm for 2 h. After 2 h of shaking, ^14C incorporation into lipid was determined by liquid scintillation counting using a TopCount NXT Microplate Scintillation and Luminescence Counter (Perkin Elmer).
The effects of Compound I-32, Compound I-1, and Compound III-1 on mouse primary hepatocyte lipogenesis are represented in Table 13. Each Compound was assayed at a concentration of 0 μM (vehicle control), 0.1 μM, 0.3 μM, 0.5 μM, 1 μM, 3 μM, 10 μM, and 100 μM, unless otherwise noted. Statistically significant inhibition was determined by one-way ANOVA and Dennett's post hoc test where appropriate. […] IC50 values were determined by nonlinear regression. All statistical analyses were carried out using GraphPad Prism 8 software. A p-value of less than or equal 0.05 was considered significant.

Data set [9] concerns the target MLCK/MYLK (Homo sapiens (Human), UniProt Q15746). In words: Wild type kinase screen: MLCK/MYLK. The data set is classed as biochemical. The conditions noted are these: compound at 10 μM, 10 μM ATP, Data 1 and Data 2 duplicates.
Data set [10] concerns the target LIMK1 (Homo sapiens (Human), UniProt P53667). In words: Wild type kinase screen: LIMK1. The data set is classed as biochemical. Conditions: compound at 10 μM, 10 μM ATP, Data 1 and Data 2 duplicates.
The test system of data set [11] is C57BL6/J mice. The data set can be described thus: Indirect calorimetry (CLAMS) in fructose-fed C57BL6/J mice. In kind it is in vivo, mouse. Conditions: 100 mg/kg oral gavage. As to the method:
Materials and Methods. All experiments were carried out using the methods approved by the Animal Research Ethics Board at McMaster University, Canada (Steinberg Laboratory Animal Utilization Protocol #16-12-42). 8-Week-old male C57BL6/J mice were ordered from Jackson Laboratory, Bar Harbor, Maine and housed at the McMaster University Central Animal Facility. Animals were housed in the ventilated cages racks system and provided with ad libitum access to normal chow diet (Teklad 8640 22/5 rodent diet, procured from Envigo, Mississauga ON) and water supplemented with fructose (30% weight/volume, made fresh weekly) for at least 2-weeks before testing commenced. A 12-hour light/dark cycle and a temperature of 23±2° C. were maintained throughout the animal housing. Data were analyzed using one-way analyses of variance followed by a Tukey's multiple comparisons post hoc test where appropriate. All statistical analysis was carried out using GraphPad Prism 8 software. A p-value of less than or equal 0.05 was considered significant.
Experimental and Results. Respiratory Exchange Ratio (RER) and related metabolic parameters were measured using the Comprehensive Lab Animal Monitoring System (CLAMS, Columbus Instruments, Columbus, Ohio). Animals were placed in CLAMS and allowed ad libitum access to normal chow diet and water supplemented with fructose (30% weight/volume) for at least 24 hours before the experiment began. At 5:30 p.m. chow diet was removed and water containing 30% fructose was replaced with normal tap water. Animals were fasted overnight until food and 30% fructose water were made accessible the next day at 7:30 a.m. (14 hours total). Animals were allowed to feed ad libitum for ˜2 hours. RER was monitored and those animals with RER values >1 were administered either vehicle (1.5% Carboxymethyl cellulose and 0.2% Tween 20) alone or vehicle containing Compound I-1 or Compound I-32 at a dose of 100 mg/kg via oral gavage. Animals remained in the metabolic cages and RER, activity level, locomotor activity, and food intake were monitored for 24 hours. Metabolic parameters were calculated using Oxymax software included with Comprehensive Lab Animal Monitoring System (CLAMS). RER was calculated as the […] given by the following equation: […]
Locomotor activity was calculated as the total number of beam breaks in each cage over a 24-hour period. The heat (calorific value, CV) was calculated by the following equation: […]

Data set [12] can be described thus: Synthesis of CoA derivatives in rat liver microsomes (LCMS detection). Conditions: 1 mM substrate, 30 min sample. The data set is classed as in vitro ADME. The procedure: Reaction products were eluted using the gradient shown below: […]
Formation and detection of the Co-A derivatives of Compounds 1-32, 1-61, I-1 or III-1 in rat liver microsomes: 1 mM of each compound (Compounds I-32, I-61, I-1 or III-1) or palmitic acid (control) were used as substrate in the rat microsomal preparation for 0 and 30 min and extracted as described above. […] Further confirmation was obtained by exposing the compound to a collision energy causing the characteristic neutral loss of 3′-phosphonucleoside diphosphate (507 Da) producing the fragment ion 499.3 m/z. There was no evidence of the CoA derivative in the time 0 min sample.
(In general: Microsomes from liver hold many membrane-bound enzymes, among them those of drug oxidation.)

ERK7/MAPK15, sequence (Q8TD08 whole entry): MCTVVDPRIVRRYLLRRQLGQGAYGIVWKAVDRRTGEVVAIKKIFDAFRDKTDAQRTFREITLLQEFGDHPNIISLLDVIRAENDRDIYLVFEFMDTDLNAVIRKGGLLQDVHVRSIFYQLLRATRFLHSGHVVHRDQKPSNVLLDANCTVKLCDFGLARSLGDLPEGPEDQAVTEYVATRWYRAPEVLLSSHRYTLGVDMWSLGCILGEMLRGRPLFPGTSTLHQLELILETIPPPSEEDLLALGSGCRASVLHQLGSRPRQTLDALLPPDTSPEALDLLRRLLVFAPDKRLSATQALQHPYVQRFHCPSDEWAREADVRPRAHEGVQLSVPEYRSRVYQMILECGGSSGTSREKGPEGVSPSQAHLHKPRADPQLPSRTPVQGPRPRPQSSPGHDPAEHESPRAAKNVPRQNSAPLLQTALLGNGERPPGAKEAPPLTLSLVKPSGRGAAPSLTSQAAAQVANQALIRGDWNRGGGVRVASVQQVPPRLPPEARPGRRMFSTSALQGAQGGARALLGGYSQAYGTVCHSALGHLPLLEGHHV
LIMK1, sequence (P53667 whole entry, species assumed): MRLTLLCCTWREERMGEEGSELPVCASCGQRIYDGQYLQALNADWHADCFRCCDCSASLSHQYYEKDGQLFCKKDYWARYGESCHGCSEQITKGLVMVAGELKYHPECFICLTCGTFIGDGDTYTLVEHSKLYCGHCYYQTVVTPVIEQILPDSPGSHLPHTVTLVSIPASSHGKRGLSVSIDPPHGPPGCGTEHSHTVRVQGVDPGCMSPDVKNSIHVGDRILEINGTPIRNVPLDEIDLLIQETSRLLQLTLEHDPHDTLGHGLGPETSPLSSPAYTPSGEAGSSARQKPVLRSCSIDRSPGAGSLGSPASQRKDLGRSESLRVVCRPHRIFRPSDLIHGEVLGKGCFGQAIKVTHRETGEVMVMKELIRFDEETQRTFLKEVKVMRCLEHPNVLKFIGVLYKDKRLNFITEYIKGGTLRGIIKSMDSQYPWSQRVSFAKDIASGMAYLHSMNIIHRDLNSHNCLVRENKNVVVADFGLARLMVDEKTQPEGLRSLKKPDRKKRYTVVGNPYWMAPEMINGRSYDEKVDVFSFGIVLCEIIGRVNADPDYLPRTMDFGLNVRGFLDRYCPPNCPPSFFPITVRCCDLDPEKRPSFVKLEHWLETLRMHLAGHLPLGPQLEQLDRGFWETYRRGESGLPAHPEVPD
RIPK4, sequence (P57078 whole entry, species assumed): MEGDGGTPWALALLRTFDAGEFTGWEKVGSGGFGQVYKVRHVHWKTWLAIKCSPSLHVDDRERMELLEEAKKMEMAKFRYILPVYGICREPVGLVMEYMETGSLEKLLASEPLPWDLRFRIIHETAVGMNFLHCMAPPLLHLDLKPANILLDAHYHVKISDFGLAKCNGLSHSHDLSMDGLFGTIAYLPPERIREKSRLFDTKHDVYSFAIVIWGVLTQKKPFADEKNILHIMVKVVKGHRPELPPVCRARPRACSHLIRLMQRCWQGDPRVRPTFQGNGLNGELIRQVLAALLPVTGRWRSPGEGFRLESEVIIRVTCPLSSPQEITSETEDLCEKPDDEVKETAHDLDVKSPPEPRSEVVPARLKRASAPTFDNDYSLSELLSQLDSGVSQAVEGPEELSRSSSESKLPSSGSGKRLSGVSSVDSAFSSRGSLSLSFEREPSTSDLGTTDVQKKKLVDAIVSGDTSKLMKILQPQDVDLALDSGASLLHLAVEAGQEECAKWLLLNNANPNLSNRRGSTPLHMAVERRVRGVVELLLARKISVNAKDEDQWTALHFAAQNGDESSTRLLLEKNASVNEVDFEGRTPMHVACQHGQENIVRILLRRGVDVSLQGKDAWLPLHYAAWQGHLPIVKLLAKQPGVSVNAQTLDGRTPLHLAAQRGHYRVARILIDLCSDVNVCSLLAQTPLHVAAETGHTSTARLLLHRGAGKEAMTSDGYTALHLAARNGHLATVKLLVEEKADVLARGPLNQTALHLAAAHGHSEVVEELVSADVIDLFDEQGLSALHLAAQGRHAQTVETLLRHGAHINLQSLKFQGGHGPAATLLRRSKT
DDR2, sequence (Q16832 22-855, species assumed): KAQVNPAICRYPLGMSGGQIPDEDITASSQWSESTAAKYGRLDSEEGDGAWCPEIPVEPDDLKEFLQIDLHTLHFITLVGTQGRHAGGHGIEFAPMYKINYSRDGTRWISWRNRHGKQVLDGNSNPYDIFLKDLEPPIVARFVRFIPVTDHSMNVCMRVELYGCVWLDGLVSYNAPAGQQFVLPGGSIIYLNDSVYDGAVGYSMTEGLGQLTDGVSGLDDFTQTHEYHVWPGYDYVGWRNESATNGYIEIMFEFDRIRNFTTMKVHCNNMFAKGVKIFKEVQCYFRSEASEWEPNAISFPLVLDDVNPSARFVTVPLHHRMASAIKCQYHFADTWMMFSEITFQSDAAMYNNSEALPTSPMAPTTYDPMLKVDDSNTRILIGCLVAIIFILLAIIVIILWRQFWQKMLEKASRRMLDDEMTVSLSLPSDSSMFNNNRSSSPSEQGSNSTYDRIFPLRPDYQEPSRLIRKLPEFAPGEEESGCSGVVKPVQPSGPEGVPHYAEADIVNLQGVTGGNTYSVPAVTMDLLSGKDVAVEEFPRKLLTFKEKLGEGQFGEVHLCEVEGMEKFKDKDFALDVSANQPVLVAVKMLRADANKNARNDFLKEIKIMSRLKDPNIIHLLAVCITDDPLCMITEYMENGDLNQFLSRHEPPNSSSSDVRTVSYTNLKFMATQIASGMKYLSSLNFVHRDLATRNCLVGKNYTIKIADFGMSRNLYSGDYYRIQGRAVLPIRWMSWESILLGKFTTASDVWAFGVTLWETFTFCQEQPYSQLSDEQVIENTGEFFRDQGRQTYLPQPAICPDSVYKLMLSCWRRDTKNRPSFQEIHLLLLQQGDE

As to `CC(C)(CCCCc1cccc(CCCCC(C)(C)C(=O)O)c1)C(=O)O` [Compound I-32, 6-[3-(5-carboxy-5-methylhexyl)-phenyl]-2,2-dimethylhexanoic acid], the “% Enzyme Activity (relative to DMSO controls)” value in data set [1] is reported as 85.83%; in data set [2], 42.74%; in [3] it was 90.61%; in data set [4], 97.44%; in [5] it was 93.33%; in data set [6], 102.21%. Further, the “% Enzyme Activity (relative to DMSO controls)” value in [7] turned out to be 66.13%; in [9] it was 103.59%; in data set [10] it was 71.71%. The “% change from control at 100 μM ± SEM(n)” value in data set [8] is −82 ± 2.8 (n = 6) %. The “Duration of the RER reduction” value in data set [11] came out at 6 h. Further, in [11], the “Respiratory exchange ratio (RER) compared to vehicle treated group” value is on record as “significant reduction”. Moreover, the “Time to detection of the RER reduction after treatment” value in data set [11] is not above 1 h. Besides, the “Formation of the CoA derivative (LCMS detection, fragmentation confirmation)” value in data set [12] is reported as “detected”.

In the case of `CC(C)(CCCCc1ccc(CCCCC(C)(C)C(=O)O)cc1)C(=O)O` [Compound I-1, 6-[4-(5-carboxy-5-methylhexyl)-phenyl]-2,2-dimethylhexanoic acid], the “% Enzyme Activity (relative to DMSO controls)” value is on record as 69.84% in data set [1]; 42.78% in data set [2]; 92.75% in data set [3]; 93.1% in data set [4]; 83.92% in data set [5]; 100.06% in data set [6]. The “% Enzyme Activity (relative to DMSO controls)” value in [7] is recorded as 57.02%; in [9], 106.34%; in data set [10], 71.9%. For the same molecule, in [8], the “% change from control at 100 μM ± SEM(n)” value was −84 ± 1.0 (n = 6) %. Further, in [11], the “Duration of the RER reduction” value amounted to 6 h. In addition, in data set [11], the “Respiratory exchange ratio (RER) compared to vehicle treated group” value is recorded as “significant reduction”. Further, the “Time to detection of the RER reduction after treatment” value in data set [11] was not above 1 h. The “Formation of the CoA derivative (LCMS detection, fragmentation confirmation)” value in [12] is listed as “detected”.
